Data taken from US20090137546A1, “Anti-Hypercholesterolemic Compounds” (priority 2005, published 2009).

Tested on: cholesterol absorption
Assay: Cholesterol Absorption Assay in Mice
Format: in vivo, C57BL/6 male mice
Conditions: highest dose tested (oral, 0.12-10 mg/kg range); [3H]-cholesterol counts in liver and plasma, 5 h after cholesterol dose
Experimental: Compounds of this invention were determined to inhibit cholesterol absorption employing the Cholesterol Absorption Assay in Mice, below. This assay involves comparing a test compound to ezetimibe with respect to their ability to inhibit cholesterol absorption in mice.
Cholesterol Absorption Assay in Mice: C57BL/6 male mice (n=6/group), aged 10-14 weeks, were dosed orally with 0.2 ml 0.25% methyl cellulose solution with or without test compound or ezetimibe (0.12-10 mg/kg). Thirty minutes later all of the mice were dosed orally with 0.2 ml […]™ containing 2 μCi [^3H]-cholesterol per mouse. Five hours later, the animals were euthanized, and liver and blood were collected. Cholesterol counts in liver and plasma were determined, and percent inhibition of cholesterol absorption was calculated.

O=C1[C@H](CC[C@H](O)c2ccc(F)cc2)[C@@H](c2ccc(O)cc2)N1c1ccc(F)cc1 [ezetimibe]
inhibition of cholesterol absorption: > 90%
